Values quoted from earlier work, collected in patent publication US20230346899A1 (priority 2022, published 2023).

System: SARS-CoV-2
Settings: moderate COVID-19 patients

Substance: aprotinin
- Median time to elimination of SARS-CoV-2 confirmed by RT-PCR, days (IQR): 7.5 (6-9) days
- Median time to improvement in clinical status by 2 points on the WHO-OSCI, days (IQR): 11.0 (6-11) days
- Median time to normalization of CRP concentration (≤10 mg/L) in patient's blood, days (IQR): 6.0 (6-6) days
- Median time to normalization of D-dimer concentration (<253 ng/mL) in patient's blood, days (IQR): 4.5 (3-6) days
- Median time to normalization of body temperature (<37° C.), days (IQR): 3.0 (2-3) days

Substance: favipiravir [FVP + SOC)]
- Median time to elimination of SARS-CoV-2 confirmed by RT-PCR, days (IQR): 4.5 (4-9) days
- Median time to improvement in clinical status by 2 points on the WHO-OSCI, days (IQR): 14.0 (11.5-16) days
- Median time to normalization of CRP concentration (≤10 mg/L) in patient's blood, days (IQR): 14.0 (5.5-14) days
- Median time to normalization of body temperature (<37° C.), days (IQR): 2.0 (1-3) days
